Assay results published in US4083987A, “4-Imino-1,3-diazabicyclo-(3.1.0)-hexan-2-one as a cancerostat and immuno-stimulant” (Boehringer Mannheim GmbH, priority 1975, dated 1978).

Experiments:
[1] = tested on: antibody-forming spleen cells; test: Number of antibody-forming spleen cells by Jerne's method after intravenous administration; type: in vivo, mice; conditions: three days; for number of antibody-forming spleen cells: mice immunized with sheep erythrocytes, control 4,600; for antibody-forming spleen cells, % of the control: mice
Description: 20 male white mice with a body weight of 20 to 25 g were each immunized with 1 ml preserved sheep erythrocytes (1 ml contains 5 × 10^8 erythrocytes). On the same day, 4-imino-1,3-diazabicyclo[3.1.0]hexan-2-oneor a comparative active material, dissolved in 5 ml physiological saline/kg. mouse body weight, were administered intravenously. For control purposes, 20 animals were also immunized with 1 ml sheep erythrocytes and treated with 5 ml/kg physiological saline. Three days after administration, the spleens of the animals were removed under sterile conditions and the number of antibody-forming spleen cells determined according to Jerne's technique. The individual values were determined.

[2] = tested on: Walker sarcoma 256; test: Cancerostatic effectiveness: inhibition of tumor growth of Walker sarcoma 256 after a single administration; type: in vivo, Sprague-Dawley rats; conditions: for % inhibition of the growth of Walker sarcoma 256: single administration, tumor weight after 10 days
Description: Sprague-Dawley rats with a body weight of 80 to 120 g and an age of 6 to 8 weeks were subcutaneously inoculated in the neck with tumor cells. In each case, there was used 0.1 ml of an aqueous suspension of about 10^6 tumor cells of the Walker sarcoma 256 (solid, rat).
4-Imino-1,3-diazabicyclo[3.1.0]hexan-2-one was dissolved in physiological saline solution (in each case, the desired amount in 5 ml solution/kg body weight of experimental animal). 6 Hours after inoculation of the animals, these solutions were administered intravenously or orally by means of a stomach tube. The control animals received 5 ml/kg body weight of physiological saline. 20 experimental animals and 20 control animals were used per experiment. The animals were sacrificed with ether after 10 days, the tumors extirpated and the weight of the tumors of the control group compared with those of the experimental group.

[3] = tested on: leukocytes; test: Immunity-stimulating action: corpuscular blood components (leukocytes, lymphocytes, erythrocytes) after a single intravenous administration; type: in vivo, Sprague-Dawley rats; conditions: for number of leukocytes/mm^3: third day, control 7,300
Description: The active material, dissolved in 5 ml physiological saline, was administered intravenously into a vein in the tails of 8 Sprague-Dawley rats with an average body weight of 200 to 250 g. As controls, there were used 8 rats which were only treated with 5 ml physiological saline per kg. body weight. In the following days, 1 to 2 drops of blood were taken from a tail vein and the corpuscular blood components determined. The average values were determined statistically from the 8 values of the individual animals.

[4] = Acute toxicity (LD50), rats; conditions: rat, in vivo, single intravenous dose
[5] = Solubility in water, physiological saline and aqueous alkali metal hydroxide solutions; type: physicochemical
[6] = Stability; type: physicochemical
[7] = in vivo; conditions: mouse, iv
[8] = Acute toxicity (LD50), mice; conditions: mouse, in vivo, po
[9] = single intravenous, rats, in words

O=P1(N(CCCl)CCCl)NCCCO1 (centres unmarked) [cyclophosphamide]
number of antibody-forming spleen cells ([1]; 125.0 mg/kg intravenous): 460 spleen cells | antibody-forming spleen cells, % of the control ([1]; 125.0 mg/kg intravenous): 10 % of the control

N=C1NC(=O)N2CC12 (centres unmarked) [4-imino-1,3-diazabicyclo-[3.1.0]hexan-2-one]
tumor growth ([2]; intravenous and oral administration): significantly inhibited | % inhibition of the growth of Walker sarcoma 256 ([2]; intravenous, 0.1 mg/kg): 7.5% | % inhibition of the growth of Walker sarcoma 256 ([2]; intravenous, 1.0 mg/kg): 17.5% | % inhibition of the growth of Walker sarcoma 256 ([2]; intravenous, 10.0 mg/kg): 49.5% | % inhibition of the growth of Walker sarcoma 256 ([2]; intravenous, 100.0 mg/kg): 31.0% | % inhibition of the growth of Walker sarcoma 256 ([2]; intravenous, 200.0 mg/kg): 39.5% | % inhibition of the growth of Walker sarcoma 256 ([2]; oral, 5.0 mg/kg): 20.0% | % inhibition of the growth of Walker sarcoma 256 ([2]; oral, 125.0 mg/kg): 62.0% | number of leukocytes/mm^3 ([3]; 2 mg/kg rat, single intravenous): 10,300 leukocytes/mm^3 | number of leukocytes/mm^3 ([3]; 5 mg/kg rat, single intravenous): 9,800 leukocytes/mm^3 | number of leukocytes/mm^3 ([3]; 10 mg/kg rat, single intravenous): 10,800 leukocytes/mm^3 | number of leukocytes/mm^3 ([3]; 20 mg/kg rat, single intravenous): 12,300 leukocytes/mm^3 | number of leukocytes/mm^3 ([3]; 40 mg/kg rat, single intravenous): 10,800 leukocytes/mm^3 | number of leukocytes/mm^3 ([3]; 75 mg/kg rat, single intravenous): 11,800 leukocytes/mm^3 | number of leukocytes/mm^3 ([3]; 150 mg/kg rat, single intravenous): 8,000 leukocytes/mm^3 | number of leukocytes/mm^3 ([3]; 400 mg/kg rat, single intravenous): 6,500 leukocytes/mm^3 | dosage necessary for immunity stimulation ([3]; deduced from the experiments, all at once or in several doses): 1 to 50 mg/kg body weight | time after which the effect slowly decreases ([3]; immunity stimulation): about 2 weeks | number of leukocytes [3, 9]: increased considerably | percentage proportion of the lymphocytes [3, 9]: increased | number of erythrocytes ([3]; single intravenous, rats, whole experimental period): did not change significantly | time until the values of the control animals were again reached ([3]; single intravenous, rats, only after the expiry of): 20 to 25 days | number of antibody-forming spleen cells ([1]; 2.5 mg/kg intravenous): 23,000 spleen cells | antibody-forming spleen cells, % of the control ([1]; 2.5 mg/kg intravenous): 500 % of the control | LD50 [4]: 660 mg/kg | water solubility [5]: good water solubility | solubility ([5]; physiological saline and aqueous alkali metal hydroxide solutions): very readily soluble | acid stability ([6]; acid): acid labile | stability in dry form ([6]; dry form): stable in dry form | LD50 [7]: 750 mg/kg | LD50 [8]: > 4000 mg/kg

phytohaemagglutinin
number of antibody-forming spleen cells ([1]; 500.0 mg/kg intravenous): 1,400 spleen cells | antibody-forming spleen cells, % of the control ([1]; 500.0 mg/kg intravenous): 30 % of the control
